What was measured:
[1] = molecular target: T1, XoxF1 MDH (XoxF1-La) (Methylorubrum extorquens, UniProt C5B120); assay: UV-visible spectroscopy of purified enzyme; type: binding; conditions: co-purified prosthetic group
T1 construct: C-terminal hexahistidine tag with rTEV site, tag cleaved; 1:1 La3+ per protomer, PQQ-containing
T1 sequence (C5B120 22-601): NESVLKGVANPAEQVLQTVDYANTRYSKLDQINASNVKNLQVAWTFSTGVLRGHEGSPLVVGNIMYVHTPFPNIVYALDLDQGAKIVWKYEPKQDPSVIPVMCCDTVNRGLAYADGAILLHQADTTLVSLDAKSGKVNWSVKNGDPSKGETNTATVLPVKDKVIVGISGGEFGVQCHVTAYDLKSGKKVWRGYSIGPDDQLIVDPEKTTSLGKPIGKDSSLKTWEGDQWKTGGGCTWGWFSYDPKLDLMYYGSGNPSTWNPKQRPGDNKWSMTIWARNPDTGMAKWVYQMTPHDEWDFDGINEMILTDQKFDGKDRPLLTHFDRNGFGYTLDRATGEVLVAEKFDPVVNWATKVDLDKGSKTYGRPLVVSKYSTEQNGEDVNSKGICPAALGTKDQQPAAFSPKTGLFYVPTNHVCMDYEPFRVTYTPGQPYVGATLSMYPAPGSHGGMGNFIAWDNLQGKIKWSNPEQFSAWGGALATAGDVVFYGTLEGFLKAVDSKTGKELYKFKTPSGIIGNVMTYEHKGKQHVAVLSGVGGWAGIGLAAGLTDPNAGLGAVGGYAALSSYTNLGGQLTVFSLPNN

[2] = molecular target: T1, XoxF1 MDH (XoxF1-La); assay: PMS-mediated DCPIP reduction at […] nm, Michaelis-Menten fit; type: biochemical; conditions: La3+-loaded enzyme (1:1), PQQ; PMS/DCPIP as electron acceptors
[3] = molecular target: T2, ExaF (ExaF-La, Ln-dependent ethanol dehydrogenase) (Methylorubrum extorquens, UniProt C5AXV8); assay: PMS-mediated DCPIP reduction in cell-free extract; type: biochemical; conditions: MDH-3 mutant strain (lacks MxaF, XoxF1, XoxF2), grown with methanol and La3+
T2 construct: native enzyme in cell-free extract of MDH-3 mutant grown with methanol and La3+
T2 sequence (C5AXV8 27-587): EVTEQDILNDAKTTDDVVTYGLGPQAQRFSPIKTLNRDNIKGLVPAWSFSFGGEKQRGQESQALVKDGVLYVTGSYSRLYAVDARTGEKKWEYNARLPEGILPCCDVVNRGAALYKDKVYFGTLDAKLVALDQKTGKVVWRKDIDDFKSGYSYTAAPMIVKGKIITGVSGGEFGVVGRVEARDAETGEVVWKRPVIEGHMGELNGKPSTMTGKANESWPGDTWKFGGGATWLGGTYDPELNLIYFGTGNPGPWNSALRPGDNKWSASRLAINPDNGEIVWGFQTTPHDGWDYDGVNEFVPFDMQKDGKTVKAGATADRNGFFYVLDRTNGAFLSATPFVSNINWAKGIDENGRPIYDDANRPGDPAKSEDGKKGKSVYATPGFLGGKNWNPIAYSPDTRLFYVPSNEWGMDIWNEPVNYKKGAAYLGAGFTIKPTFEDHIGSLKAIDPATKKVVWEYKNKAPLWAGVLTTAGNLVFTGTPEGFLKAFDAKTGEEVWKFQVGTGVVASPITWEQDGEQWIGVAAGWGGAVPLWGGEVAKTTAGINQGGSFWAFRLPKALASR

[4] = substrate: CCO; assay: purified protein; conditions: La3+-loaded enzyme (1:1), PQQ; PMS/DCPIP as electron acceptors

## O=C(O)c1cc(C(=O)O)c2c(n1)C(=O)C(=O)c1cc(C(=O)O)[nH]c1-2 [PQQ]
[1]
  molar ratio: PQQ was detected as a prosthetic group via UV-visible spectroscopy

## C=O [formaldehyde]
[2]
  Km: 0.096 ± 0.006 mM
[3]
  specific activity: confirming that ExaF can oxidize formaldehyde in vivo

## CO [methanol]
[2]
  Km: 0.044 ± 0.005 mM

B1: XoxF1 MDH (XoxF1-La) (Methylorubrum extorquens AM1) (protein)
chain: NESVLKGVANPAEQVLQTVDYANTRYSKLDQINASNVKNLQVAWTFSTGVLRGHEGSPLVVGNIMYVHTPFPNIVYALDLDQGAKIVWKYEPKQDPSVIPVMCCDTVNRGLAYADGAILLHQADTTLVSLDAKSGKVNWSVKNGDPSKGETNTATVLPVKDKVIVGISGGEFGVQCHVTAYDLKSGKKVWRGYSIGPDDQLIVDPEKTTSLGKPIGKDSSLKTWEGDQWKTGGGCTWGWFSYDPKLDLMYYGSGNPSTWNPKQRPGDNKWSMTIWARNPDTGMAKWVYQMTPHDEWDFDGINEMILTDQKFDGKDRPLLTHFDRNGFGYTLDRATGEVLVAEKFDPVVNWATKVDLDKGSKTYGRPLVVSKYSTEQNGEDVNSKGICPAALGTKDQQPAAFSPKTGLFYVPTNHVCMDYEPFRVTYTPGQPYVGATLSMYPAPGSHGGMGNFIAWDNLQGKIKWSNPEQFSAWGGALATAGDVVFYGTLEGFLKAVDSKTGKELYKFKTPSGIIGNVMTYEHKGKQHVAVLSGVGGWAGIGLAAGLTDPNAGLGAVGGYAALSSYTNLGGQLTVFSLPNN
[4]
  Km: 67 ± 3 µM
  Vmax: 6.21 µmol/min/mg
  kcat/Km: 194000 M⁻¹ s⁻¹

Reference: paper PMC6414531, “Contrasting in vitro and in vivo methanol oxidation activities of lanthanide-dependent alcohol dehydrogenases XoxF1 and ExaF from Methylobacterium extorquens AM1” (Scientific Reports, 2019)
